Experiments:
Histone deacetylase 1 = Histone deacetylase 1 (Homo sapiens, UniProt Q13547); test: Inhibition of human HDAC1 (1 to 482 reidue) expressed in sf9 cells using ZMAL(Cbz-(Ac)Lys-AMC as substrate preincubated for 90 mins followed by trypsin addition and measured after 20 mins by fluorimetric method
Histone deacetylase 8 [1] = biological target: T1, Histone deacetylase 8 (Schistosoma mansoni, UniProt A5H660); test: Inhibition of Schistosoma mansoni HDAC8 expressed in Escherichia coli using Fluor de Lys as substrate incubated for 90 mins by fluorescence method
T1 sequence (A5H660 whole entry): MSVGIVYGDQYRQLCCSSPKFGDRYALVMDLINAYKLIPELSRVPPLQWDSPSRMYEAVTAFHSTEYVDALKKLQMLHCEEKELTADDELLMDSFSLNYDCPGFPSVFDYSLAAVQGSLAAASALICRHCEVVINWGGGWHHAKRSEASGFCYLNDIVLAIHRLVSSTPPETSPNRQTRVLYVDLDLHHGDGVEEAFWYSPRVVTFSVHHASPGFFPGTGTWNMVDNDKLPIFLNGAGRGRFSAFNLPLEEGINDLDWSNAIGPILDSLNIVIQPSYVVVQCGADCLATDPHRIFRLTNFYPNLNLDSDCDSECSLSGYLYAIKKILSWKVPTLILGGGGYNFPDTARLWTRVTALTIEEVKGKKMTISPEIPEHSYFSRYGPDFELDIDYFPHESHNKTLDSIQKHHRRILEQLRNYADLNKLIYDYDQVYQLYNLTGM

Histone deacetylase 8 [2] = biological target: T2, Histone deacetylase 8 (Homo sapiens, UniProt Q9BY41); test: Inhibition of human HDAC8 using Fluor de Lys as substrate incubated for 90 mins by fluorescence method
T2 sequence (Q9BY41 whole entry): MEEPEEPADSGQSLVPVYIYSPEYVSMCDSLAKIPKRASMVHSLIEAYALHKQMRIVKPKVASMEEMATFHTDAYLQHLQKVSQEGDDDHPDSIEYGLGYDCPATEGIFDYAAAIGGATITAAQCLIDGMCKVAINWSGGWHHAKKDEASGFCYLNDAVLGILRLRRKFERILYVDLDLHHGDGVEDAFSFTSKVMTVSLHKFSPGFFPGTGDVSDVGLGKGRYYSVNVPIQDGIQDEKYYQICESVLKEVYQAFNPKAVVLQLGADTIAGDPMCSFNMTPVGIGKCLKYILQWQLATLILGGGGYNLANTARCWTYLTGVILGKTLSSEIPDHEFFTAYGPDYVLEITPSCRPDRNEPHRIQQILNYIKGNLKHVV

[3] = biological target: T3, Protein deacetylase HDAC6 (Homo sapiens, UniProt Q9UBN7); test: Inhibition of human HDAC6 using ZMAL(Cbz-(Ac)Lys-AMC as substrate preincubated for 90 mins followed by trypsin addition and measured after 20 mins by fluorimetric method
T3 sequence (Q9UBN7 whole entry): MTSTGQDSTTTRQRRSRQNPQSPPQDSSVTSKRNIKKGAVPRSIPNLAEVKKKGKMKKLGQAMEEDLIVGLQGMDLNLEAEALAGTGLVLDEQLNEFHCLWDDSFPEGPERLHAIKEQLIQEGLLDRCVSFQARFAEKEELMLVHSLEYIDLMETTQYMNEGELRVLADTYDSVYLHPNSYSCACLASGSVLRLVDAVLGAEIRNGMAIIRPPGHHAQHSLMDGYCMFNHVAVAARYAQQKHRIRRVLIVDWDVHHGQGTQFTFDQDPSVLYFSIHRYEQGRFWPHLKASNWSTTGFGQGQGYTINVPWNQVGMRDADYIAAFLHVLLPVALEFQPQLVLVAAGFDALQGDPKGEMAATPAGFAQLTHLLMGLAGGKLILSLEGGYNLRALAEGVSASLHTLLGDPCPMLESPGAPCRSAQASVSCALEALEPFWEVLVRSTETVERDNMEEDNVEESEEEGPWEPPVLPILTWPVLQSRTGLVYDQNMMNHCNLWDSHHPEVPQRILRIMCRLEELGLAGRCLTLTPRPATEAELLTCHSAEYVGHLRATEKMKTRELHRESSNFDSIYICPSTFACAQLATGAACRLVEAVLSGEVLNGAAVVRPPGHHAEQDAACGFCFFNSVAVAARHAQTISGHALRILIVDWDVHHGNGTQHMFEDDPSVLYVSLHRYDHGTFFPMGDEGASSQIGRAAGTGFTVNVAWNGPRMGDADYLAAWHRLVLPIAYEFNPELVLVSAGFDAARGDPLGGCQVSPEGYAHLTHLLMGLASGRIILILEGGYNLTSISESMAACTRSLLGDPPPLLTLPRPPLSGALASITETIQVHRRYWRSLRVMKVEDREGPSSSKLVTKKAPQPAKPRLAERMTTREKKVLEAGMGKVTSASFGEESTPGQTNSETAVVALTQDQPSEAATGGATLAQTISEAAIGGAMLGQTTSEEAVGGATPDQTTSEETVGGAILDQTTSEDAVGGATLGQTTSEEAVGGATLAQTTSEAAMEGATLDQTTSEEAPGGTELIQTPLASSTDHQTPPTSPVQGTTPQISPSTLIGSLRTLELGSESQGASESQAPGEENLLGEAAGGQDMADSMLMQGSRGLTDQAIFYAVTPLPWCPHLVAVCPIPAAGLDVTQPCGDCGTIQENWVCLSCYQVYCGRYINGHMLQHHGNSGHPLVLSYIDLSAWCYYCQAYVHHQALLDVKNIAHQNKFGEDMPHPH

Schistosoma mansoni [4] = test: Antischistosomal activity against Schistosoma mansoni Liberian infected in NMRI mouse assessed as worm burden reduction at 200 mg/kg, po measured after 14 days relative to control; format: functional; parameters: scale not given: the % may be the effect or the level left; settings: time 14 day
Schistosoma mansoni [5] = test: Antischistosomal activity against Schistosoma mansoni Egyptian assessed as worm mortality incubated for 5 days by stereomicroscopic method; format: functional, organism-based; settings: 120 h; for IC90: time 5 day
[6] = Cytotoxicity against Biomphalaria alexandrina incubated for 24 hrs relative to control; parameters: concentration or dose not given beside the values
Schistosoma mansoni [7] = test: Antischistosomal activity against Schistosoma mansoni assessed as worm mortality at 5 ug/ml incubated for 5 days by stereomicroscopic method relative to control; format: functional; settings: 120 h, time 5 day
[8] = Cytotoxicity against Biomphalaria alexandrina incubated for 24 hrs
Schistosoma mansoni [9] = test: Antischistosomal activity against Schistosoma mansoni Puerto-Rican assessed as worm mortality incubated for 5 days by stereomicroscopic method; format: functional, organism-based; settings: 120 h; for IC90: time 5 day
Schistosoma mansoni [10] = test: Antischistosomal activity against Schistosoma mansoni Puerto-Rican incubated for 72 hrs by inverted microscopic method; format: functional, organism-based
Schistosoma mansoni [11] = test: Antischistosomal activity against Schistosoma mansoni infected in NMRI mouse assessed as worm burden reduction at 400 mg/kg, po administered […] for 4 consecutive days and measured after 14 days relative to control; format: functional; parameters: scale not given: the % may be the effect or the level left; settings: time 14 day
Schistosoma mansoni [12] = test: Antischistosomal activity against Schistosoma mansoni Puerto Rican schistosomula assessed as effect on worm motility measured after 72 hrs; format: functional, organism-based
Schistosoma mansoni [13] = test: Antischistosomal activity against Schistosoma mansoni Puerto Rican schistosomula assessed as effect on worm phenotype measured after 72 hrs; format: functional, organism-based
Schistosoma mansoni [14] = test: microbe, parasite or virus in culture; settings: Liberian, 72 h
Description: Antischistosomal activity against Schistosoma mansoni Liberian NTS incubated for 72 hrs by microscopic method

Schistosoma mansoni [15] = test: microbe, parasite or virus in culture; settings: 72 h
Description: Antischistosomal activity against Schistosoma mansoni incubated for 72 hrs by inverted microscopic method

Schistosoma mansoni [16] = test: Antischistosomal activity against Schistosoma mansoni infected in NMRI mouse assessed as worm burden reduction at 200 mg/kg, po administered as single dose and measured after 17 to 21 days relative to control; format: functional, organism-based; parameters: scale not given: the % may be the effect or the level left; settings: time 17-21 day
Schistosoma haematobium = test: Antischistosomal activity against Schistosoma haematobium at 10 uM measured after 72 hrs relative to control; format: functional
Schistosoma mansoni [17] = test: Antischistosomal activity against adult Schistosoma mansoni LE assessed as reduction in motor activity at 50 uM measured after 24 hrs by inverted microscopy relative to control; format: functional; parameters: scale not given: the % may be the effect or the level left

Histone deacetylase 1, sequence (Q13547 whole entry): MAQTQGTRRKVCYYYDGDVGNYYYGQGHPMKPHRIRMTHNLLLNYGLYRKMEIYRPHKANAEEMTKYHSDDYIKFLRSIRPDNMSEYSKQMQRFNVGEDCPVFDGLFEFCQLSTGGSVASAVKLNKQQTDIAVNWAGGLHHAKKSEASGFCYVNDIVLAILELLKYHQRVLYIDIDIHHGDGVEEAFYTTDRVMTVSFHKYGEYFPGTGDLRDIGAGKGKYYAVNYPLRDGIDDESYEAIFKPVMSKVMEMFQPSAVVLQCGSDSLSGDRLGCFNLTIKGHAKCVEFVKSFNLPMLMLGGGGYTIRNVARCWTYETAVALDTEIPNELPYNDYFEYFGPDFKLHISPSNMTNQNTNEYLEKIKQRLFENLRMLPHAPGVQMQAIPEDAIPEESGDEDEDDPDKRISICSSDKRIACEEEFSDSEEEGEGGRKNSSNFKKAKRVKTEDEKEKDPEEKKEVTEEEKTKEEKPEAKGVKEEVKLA

## CCCCCCC(=O)N(O)C1CC(=O)C(c2ccc(Cl)cc2)C1=O (configuration not stated)
Histone deacetylase 1
  IC50: 3.98 µM
Histone deacetylase 8 [1]
  IC50: 5.5 µM
Histone deacetylase 8 [2]
  IC50: 7.69 µM
[3]
  IC50: 2.65 µM

## OC(c1cc(-c2ccc(C(F)(F)F)cc2)nc(C(F)(F)F)c1)C1CCCCN1 (configuration not stated) [ENPIROLINE]
Schistosoma mansoni [4]
  Activity: >82%

## O[C@H](c1cc(-c2ccc(C(F)(F)F)cc2)nc(C(F)(F)F)c1)[C@H]1CCCCN1
Schistosoma mansoni [4]
  Activity: >82%

## Cn1c2nc3ccccc3c-2c(N2CCN(CCO)CC2)c2cc(Cl)ccc21
Schistosoma mansoni [5]
  IC50: 1.77 µM
  IC90: 4.55 µM
[6]
  mortality: 100%
Schistosoma mansoni [7]
  mortality at 5 µg/mL: 100%
[8]
  LC50: 3.9 µM
  LC90: 4.8 µM
Schistosoma mansoni [9]
  IC50: 3.29 µM
  IC90: 5.57 µM

## Brc1ccc(Nc2nc3ccccc3nc2Nc2ccc(Br)cc2)cc1
Schistosoma mansoni [10]
  IC50: 0.8 µM
Schistosoma mansoni [11]
  Activity: 40.8%

## CN(C)CCNc1c2c3ccccc3nc-2n(C)c2ccc(Cl)cc12
Schistosoma mansoni [5]
  IC50: 3.68 µM
  IC90: 7.65 µM
[6]
  mortality: 100%
Schistosoma mansoni [7]
  mortality at 5 µg/mL: 100%
[8]
  LC50: 1.47 µM
  LC90: 2.12 µM
Schistosoma mansoni [9]
  IC50: 5.95 µM
  IC90: 13 µM

## CC1(C)CCC[C@]2(C)C(CC[C@@](C)(O)/C=C/c3cccc(Cl)c3)[C@](C)(O)CC[C@@H]12 (some centres not stated)
Schistosoma mansoni [12]
  IC50: < 10 µM
Schistosoma mansoni [13]
  IC50: < 10 µM

## O=C(CCl)NCCOc1ccc(Cl)cc1Cl
Schistosoma mansoni [10]
  IC50: 3.4 µM
Schistosoma mansoni [11]
  Activity: 1.8%
Schistosoma mansoni [14]
  IC50: 1.8 µM

## Cn1c2nc3ccccc3c-2c(NCCN2CCOCC2)c2cc(Cl)ccc21
Schistosoma mansoni [5]
  IC50: 1.26 µM
  IC90: 4.05 µM
[6]
  mortality: 100%
Schistosoma mansoni [7]
  mortality at 5 µg/mL: 100%
[8]
  LC50: 1.3 µM
  LC90: 2.2 µM
Schistosoma mansoni [9]
  IC50: 3.54 µM
  IC90: 6.83 µM

## COc1ccc(Oc2ccc([C@H](C)N(C)c3ncc4c(N)nc(N)nc4n3)cc2)cc1
Schistosoma mansoni [15]
  IC50: 7.9 µM
Schistosoma mansoni [16]
  Activity: 32.8%
Schistosoma mansoni [14]
  IC50: 16.7 µM
Schistosoma haematobium
  Activity: 50.9%

## O=C1OC[C@@H](Cc2ccc3c(c2)OCO3)[C@@H]1Cc1ccc2c(c1)OCO2
Schistosoma mansoni [17]
  Activity: >75%

## COc1cc(C[C@@H]2C(=O)OC[C@H]2Cc2ccc3c(c2)OCO3)cc(OC)c1OC
Schistosoma mansoni [17]
  Activity: >75%

## CN1CCC(NCc2cccc(-c3ccc(S(=O)(=O)NCc4ccccc4)cc3)c2)CC1
Schistosoma mansoni [15]
  IC50: 3 µM
Schistosoma mansoni [16]
  Activity: 67.8%
Schistosoma mansoni [14]
  IC50: 2.6 µM
Schistosoma haematobium
  Activity: 75.4%
